# Test results reported in US10842749B2, “Compositions and methods of treating therapy resistant cancer and uses thereof” (priority 2012, dated 2020).
# Assays:
# [1] = system: MDA-MB-231/MDR cells; test: Cell viability of MDR1-transfected MDA-MB-231/MDR cells; assay type: cell-based, human; settings: cell viability 72 hours after treatment
# Method: (§1) FIGS. 2A-2H show vesicular transport of pDox in tumor cells and effective killing of tumor cells carrying an overexpressed multidrug resistance gene mediated by pDox. […] The presence of doxorubicin (red) in subcellular organelle was visualized by fluorescence microscopy. Nuclei were stained blue with DAPI and late endosomes/lysosomes were stained green with LysoTracker. Nuclear accumulation could be detected as early as 15 minutes after treatment of cells with Dox, while co-localization of Dox with LysoTracker was apparent in pDox treated cells 15 minutes and 1 hour after treatment. […] The cells were sensitive to pDox, but resistant to treatment with free Dox. FIG. 2D depicts fluorescence images of subcellular organelles. Nuclei were stained in blue DAPI and lysosomes were stained in green with LysoTracker. Images of Dox, nuclei and lysosomes were merged to show subcellular localization of Dox at different time points.
# Many breast cancer patients are resistant to chemotherapy due to drug efflux. About 25-50% of previously untreated breast cancers express the MDR1 gene encoding p-glycoprotein, one of the drug efflux pump proteins^17. Overexpression of MDR1 has also been attributed to acquired resistance to anthracyclines and cross-resistance to other chemotherapy drugs in the clinic^15. […]
# [2] = system: MDA-MB-231 cells; test: Intracellular trafficking of Dox and pDox; assay type: cell-based, human; settings: fluorescence microscopy
# Method: as §1, with “Images of Dox, nuclei and lysosomes were merged to show subcellular localization of Dox at different time points.” left out
# Applicants conducted studies to compare cellular uptake and subcellular trafficking of free Dox and pDox nanoparticles in MDA-MB-231 cells. […] However, no nuclear accumulation was detected in the pDox-treated cells at the same time (FIG. 2A and FIG. 2D). The red fluorescence from pDox could be co-localized with the green LysoTracker-positive subcellular organelles beginning at 15 minutes, and reached a high level one hour after pDox treatment (FIG. 2A and FIG. 2D), indicating pDox entered tumor cells via vesicular transport. […]
# [3] = system: MDA-MB-231 human breast cancer lung metastasis; test: Murine model of MDA-MB-231 human breast cancer lung metastasis; assay type: in vivo, nude mice; settings: Dox 3 mg/kg weekly, 6 weeks
# Method: (§2) Applicants selected the murine model of MDA-MB-231 human breast cancer lung metastasis, widely used to study mechanism of pathology and for drug development^37-39, to evaluate therapeutic efficacy of porous silicon/pDox. […] Applicants treated the tumor-bearing mice with free pDox, porous silicon/pDox, and the clinically available drugs doxorubicin and Doxil, beginning one week after tumor inoculation and lasting for 6 weeks. Drugs were dosed biweekly at 6 mg/kg to mice in all treatment groups (10 mice per group) except free Dox.
# [4] = system: 4T1 lung metastasis; test: 4T1 lung metastasis model, pilot study (two treatments); assay type: in vivo, BALB/c mice; settings: 6 mg/kg on day of surgery and 10 days later
# From the text: All mice were sacrificed three weeks after the first treatment, and lung tissues were examined for tumor metastasis. […] The arrows indicate tumor nodules in the lung (FIG. 5F-2).
# Thus the 4T1 syngeneic tumor mice represent a second Triple Negative Breast Cancer (TNBC) tumor model in this study. When inoculated into the mammary gland fat pad of BALB/c mice, 4T1 tumor cells formed rapidly growing primary tumors. If left untreated, all of the mice would eventually develop lung metastasis from primary tumors. In a pilot study, surgical removal of primary tumors (about 400 mm^3 in size) was performed, and then PBS, Dox, pDox, or Porous silicon/pDox was administered once immediately after surgery and again 10 days post-surgery.
# [5] = Heart H&E staining and body weight in treated tumor mice
# Method: FIGS. 4A-4C show H&E staining of heart tissues in mice treated with 6 mg/kg free Dox, Doxil, or porous silicon/pDox for 6 weeks.
# as §2
# [6] = system: 4T1 lung metastasis; test: 4T1 lung metastasis model, follow-up study (weekly x 4 after surgery)
# Method: 4T1 tumor cells were inoculated in the fourth mammary gland fat pad of female BALB/c mice. The primary tumors were surgically removed when they reached 250-300 mm3, and mice (n=10 mice/group) were treated weekly with 6 mg/kg Dox, Doxil, pDox, or Porous silicon/pDox for four consecutive weeks. Tumor growth was monitored by tracking bioluminescent intensity with the Xenogene IVIS-200 imaging system.
# To generate the mouse 4T1 lung metastasis model, BALB/c mice were inoculated with 4T1 cells (5×10^4 cells/mouse) into the mammary gland fat pad. […] In the follow-up study, 4T1 cells that were engineered to express luciferase and GFP, and were inoculated into the mammary gland fat pads of female BALB/c mice. The primary tumors were surgically removed once they reached 250-300 mm^3. Mice were treated with 6 mg/kg of the therapeutic agents weekly for 4 weeks, and subsequently maintained to assess survival benefit from treatments.
# To evaluate drug dosing requirements and sustainability after administration, Applicants applied a different drug regimen to BALB/c mice bearing 4T1 tumors. Applicants performed complete surgical removal of the primary tumors once they reached 250-300 mm3, and confirmed that the extraction was thorough by the lack of bioluminescence from the luciferase- and GFP-bearing mammary gland fat pads (FIG. 5A). […]
# [7] = Tissue distribution of Dox by HPLC in MDA-MB-231 lung metastasis mice
# Method: They were sacrificed 1 hour, 1 day, or 7 days later. Dox concentration in major organs was analyzed by HPLC.
# Quantitation of doxorubicin was performed using Daunorubicin (Dau, Sigma) as an internal standard^49. Briefly, tissues were homogenized in PBS (100 mg tissue/330 μL PBS), and then mixed with 10 μL Dau (50 μg/mL). A 4-fold volume of the extraction solution containing chloroform and methanol (3/1, v/v) was subsequently added. The mixture was vortexed for 1 minute, and centrifuged at 13,000 rpm for 10 minutes to separate the aqueous and organic phases. The organic phase was collected, and the solvent was evaporated at 25° C. under a flow of nitrogen. The extract was dissolved in 100 μL methanol, and a 10 μL aliquot was used for HPLC analysis.
compound,measurement,setting,value
"COc1cccc2c1C(=O)c1c(O)c3c(c(O)c1C2=O)C[C@@](O)(C(=O)CO)C[C@@H]3O[C@H]1C[C@H](N)[C@H](O)[C@H](C)O1 [Dox, doxorubicin]",sensitivity of MDR1-expressing cells to treatment,[1],resistant
same,time of nuclear accumulation after addition of drug,[2],15 min
same,extension of median survival over control groups,[3]; pDox 6 mg/kg biweekly,2 weeks
same,Median survival,"[3]; Doxil, pDox, MSV/pDox 6 mg/kg biweekly, tail vein",98.5 days
same,lung tumor nodules / metastasis,[4],"multiple, large tumor nodules in the lung"
same,heart histology (H&E),[5]; 6 mg/kg biweekly,deformation of myocardial fibers
same,body weight change,"[5]; Dox 3 mg/kg weekly, Doxil, porous silicon/pDox 6 mg/kg biweekly",initial drop in body weight but recovered shortly
same,extension of median survival over the PBS control,[6]; 6 mg/kg weekly for 4 weeks,13 days
same,Median survival after tumor inoculation,[6]; 6 mg/kg weekly for 4 weeks after surgical removal of primary tumor,62 days
same,Dox concentration in the heart,"[7]; 6 mg/kg i.v., one hour after dosing",over 10 μg/g organ
same,plasma Dox,[7]; 1 hour post-dosing,barely detectable
